{"source": "ChEMBL document CHEMBL3885881", "about": "“DrugMatrix”", "species_on_record": "Rattus norvegicus", "experiment": "DrugMatrix - Regimen: Daily Repeat", "type": "toxicity, organism-based, Sprague-Dawley", "set-up": "regimen Daily Repeat, gender Male, age 6-8 weeks", "details": "in vivo, iv, 72 h, time 3 day, vehicle 100 % SALINE; for ABSOLUTE BASOPHIL / ABSOLUTE EOSINOPHIL / ABSOLUTE LYMPHOCYTE / ABSOLUTE MONOCYTE / ABSOLUTE SEGMENTED NEUTROPHIL / BASOPHIL / EOSINOPHIL / ERYTHROCYTE COUNT / HEMATOCRIT / HEMOGLOBIN / LEUKOCYTE COUNT / LYMPHOCYTE / MEAN CORPUSCULAR HEMOGLOBIN / MEAN CORPUSCULAR HEMOGLOBIN CONCENTRATION / MEAN CORPUSCULAR VOLUME / MONOCYTE / NEUTROPHIL / NUCLEATED RED BLOOD CELLS / PLATELET COUNT: tissue Blood; for ALANINE AMINOTRANSFERASE / ALKALINE PHOSPHATASE / ASPARTATE AMINOTRANSFERASE / BLOOD UREA NITROGEN / CARBON DIOXIDE / CHLORIDE / CHOLESTEROL / CREATINE PHOSPHOKINASE / CREATININE / GLUCOSE / LACTATE DEHYDROGENASE / LIPASE / PHOSPHORUS / POTASSIUM / SODIUM / TOTAL BILIRUBIN / TOTAL PROTEIN / URIC ACID: tissue Plasma"}
{"smiles": "COc1cc2c(c(OC)c1OC)-c1ccc(OC)c(=O)cc1[C@@H](NC(C)=O)CC2", "note": "[COLCHICINE]", "values": [{"measurement": "ABSOLUTE BASOPHIL", "setting": "0.06 mg/kg, dose level Low", "result": 0, "unit": "CELLS/uL"}, {"measurement": "ABSOLUTE EOSINOPHIL", "setting": "0.06 mg/kg, dose level Low", "result": 27.33, "unit": "CELLS/uL"}, {"measurement": "ABSOLUTE LYMPHOCYTE", "setting": "0.06 mg/kg, dose level Low", "result": 6156.67, "unit": "CELLS/uL"}, {"measurement": "ABSOLUTE MONOCYTE", "setting": "0.06 mg/kg, dose level Low", "result": 0, "unit": "CELLS/uL"}, {"measurement": "ABSOLUTE SEGMENTED NEUTROPHIL", "setting": "0.06 mg/kg, dose level Low", "result": 749.33, "unit": "CELLS/uL"}, {"measurement": "BASOPHIL", "setting": "0.06 mg/kg, dose level Low", "result": 0, "unit": "%"}, {"measurement": "EOSINOPHIL", "setting": "0.06 mg/kg, dose level Low", "result": 0.33, "unit": "%"}, {"measurement": "ERYTHROCYTE COUNT", "setting": "0.06 mg/kg, dose level Low", "result": 5.17, "unit": "x10E6/uL"}, {"measurement": "HEMATOCRIT", "setting": "0.06 mg/kg, dose level Low", "result": 32.07, "unit": "%"}, {"measurement": "HEMOGLOBIN", "setting": "0.06 mg/kg, dose level Low", "result": 12.27, "unit": "G/DL"}, {"measurement": "LEUKOCYTE COUNT", "setting": "0.06 mg/kg, dose level Low", "result": 6.93, "unit": "x10E3/uL"}, {"measurement": "LYMPHOCYTE", "setting": "0.06 mg/kg, dose level Low", "result": 89, "unit": "%"}, {"measurement": "MEAN CORPUSCULAR HEMOGLOBIN", "setting": "0.06 mg/kg, dose level Low", "result": 23.77, "unit": "pg"}, {"measurement": "MEAN CORPUSCULAR HEMOGLOBIN CONCENTRATION", "setting": "0.06 mg/kg, dose level Low", "result": 38.27, "unit": "G/DL"}, {"measurement": "MEAN CORPUSCULAR VOLUME", "setting": "0.06 mg/kg, dose level Low", "result": 62.1, "unit": "fL"}, {"measurement": "MONOCYTE", "setting": "0.06 mg/kg, dose level Low", "result": 0, "unit": "%"}, {"measurement": "NEUTROPHIL", "setting": "0.06 mg/kg, dose level Low", "result": 10.67, "unit": "%"}, {"measurement": "NUCLEATED RED BLOOD CELLS", "setting": "0.06 mg/kg, dose level Low", "result": "0 /100WBC"}, {"measurement": "PLATELET COUNT", "setting": "0.06 mg/kg, dose level Low", "result": 1043, "unit": "x10E3/uL"}, {"measurement": "ALANINE AMINOTRANSFERASE", "setting": "0.06 mg/kg, dose level Low", "result": 47.67, "unit": "u/L"}, {"measurement": "ALKALINE PHOSPHATASE", "setting": "0.06 mg/kg, dose level Low", "result": 415.67, "unit": "u/L"}, {"measurement": "ASPARTATE AMINOTRANSFERASE", "setting": "0.06 mg/kg, dose level Low", "result": 76.33, "unit": "u/L"}, {"measurement": "BLOOD UREA NITROGEN", "setting": "0.06 mg/kg, dose level Low", "result": 14, "unit": "mg/dL"}, {"measurement": "CARBON DIOXIDE", "setting": "0.06 mg/kg, dose level Low", "result": 31.67, "unit": "mmol/L"}, {"measurement": "CHLORIDE", "setting": "0.06 mg/kg, dose level Low", "result": 96.33, "unit": "MEQ/L"}, {"measurement": "CHOLESTEROL", "setting": "0.06 mg/kg, dose level Low", "result": 74, "unit": "mg/dL"}, {"measurement": "CREATINE PHOSPHOKINASE", "setting": "0.06 mg/kg, dose level Low", "result": 201, "unit": "u/L"}, {"measurement": "CREATININE", "setting": "0.06 mg/kg, dose level Low", "result": 0.18, "unit": "mg/dL"}, {"measurement": "GLUCOSE", "setting": "0.06 mg/kg, dose level Low", "result": 136.67, "unit": "mg/dL"}, {"measurement": "LACTATE DEHYDROGENASE", "setting": "0.06 mg/kg, dose level Low", "result": 97, "unit": "u/L"}, {"measurement": "LIPASE", "setting": "0.06 mg/kg, dose level Low", "result": 8, "unit": "u/L"}, {"measurement": "PHOSPHORUS", "setting": "0.06 mg/kg, dose level Low", "result": 13.4, "unit": "mg/dL"}, {"measurement": "POTASSIUM", "setting": "0.06 mg/kg, dose level Low", "result": 6.43, "unit": "MEQ/L"}, {"measurement": "SODIUM", "setting": "0.06 mg/kg, dose level Low", "result": 144.43, "unit": "MEQ/L"}, {"measurement": "TOTAL BILIRUBIN", "setting": "0.06 mg/kg, dose level Low", "result": 0.17, "unit": "mg/dL"}, {"measurement": "TOTAL PROTEIN", "setting": "0.06 mg/kg, dose level Low", "result": 6.37, "unit": "G/DL"}, {"measurement": "URIC ACID", "setting": "0.06 mg/kg, dose level Low", "result": 1.13, "unit": "mg/dL"}, {"measurement": "ABSOLUTE BASOPHIL", "setting": "0.6 mg/kg, dose level High", "result": 0, "unit": "CELLS/uL"}, {"measurement": "ABSOLUTE EOSINOPHIL", "setting": "0.6 mg/kg, dose level High", "result": 18.33, "unit": "CELLS/uL"}, {"measurement": "ABSOLUTE LYMPHOCYTE", "setting": "0.6 mg/kg, dose level High", "result": 4412.33, "unit": "CELLS/uL"}, {"measurement": "ABSOLUTE MONOCYTE", "setting": "0.6 mg/kg, dose level High", "result": 18.33, "unit": "CELLS/uL"}, {"measurement": "ABSOLUTE SEGMENTED NEUTROPHIL", "setting": "0.6 mg/kg, dose level High", "result": 317.67, "unit": "CELLS/uL"}, {"measurement": "BASOPHIL", "setting": "0.6 mg/kg, dose level High", "result": 0, "unit": "%"}, {"measurement": "EOSINOPHIL", "setting": "0.6 mg/kg, dose level High", "result": 0.33, "unit": "%"}, {"measurement": "ERYTHROCYTE COUNT", "setting": "0.6 mg/kg, dose level High", "result": 4.91, "unit": "x10E6/uL"}, {"measurement": "HEMATOCRIT", "setting": "0.6 mg/kg, dose level High", "result": 30.9, "unit": "%"}, {"measurement": "HEMOGLOBIN", "setting": "0.6 mg/kg, dose level High", "result": 11.7, "unit": "G/DL"}, {"measurement": "LEUKOCYTE COUNT", "setting": "0.6 mg/kg, dose level High", "result": 4.77, "unit": "x10E3/uL"}, {"measurement": "LYMPHOCYTE", "setting": "0.6 mg/kg, dose level High", "result": 93, "unit": "%"}, {"measurement": "MEAN CORPUSCULAR HEMOGLOBIN", "setting": "0.6 mg/kg, dose level High", "result": 23.87, "unit": "pg"}, {"measurement": "MEAN CORPUSCULAR HEMOGLOBIN CONCENTRATION", "setting": "0.6 mg/kg, dose level High", "result": 37.87, "unit": "G/DL"}, {"measurement": "MEAN CORPUSCULAR VOLUME", "setting": "0.6 mg/kg, dose level High", "result": 62.97, "unit": "fL"}, {"measurement": "MONOCYTE", "setting": "0.6 mg/kg, dose level High", "result": 0.33, "unit": "%"}, {"measurement": "NEUTROPHIL", "setting": "0.6 mg/kg, dose level High", "result": 6.33, "unit": "%"}, {"measurement": "NUCLEATED RED BLOOD CELLS", "setting": "0.6 mg/kg, dose level High", "result": "0.33 /100WBC"}, {"measurement": "PLATELET COUNT", "setting": "0.6 mg/kg, dose level High", "result": 987.33, "unit": "x10E3/uL"}, {"measurement": "ALANINE AMINOTRANSFERASE", "setting": "0.6 mg/kg, dose level High", "result": 103.67, "unit": "u/L"}, {"measurement": "ALKALINE PHOSPHATASE", "setting": "0.6 mg/kg, dose level High", "result": 371.33, "unit": "u/L"}, {"measurement": "ASPARTATE AMINOTRANSFERASE", "setting": "0.6 mg/kg, dose level High", "result": 526.67, "unit": "u/L"}, {"measurement": "BLOOD UREA NITROGEN", "setting": "0.6 mg/kg, dose level High", "result": 14.33, "unit": "mg/dL"}, {"measurement": "CARBON DIOXIDE", "setting": "0.6 mg/kg, dose level High", "result": 28.67, "unit": "mmol/L"}, {"measurement": "CHLORIDE", "setting": "0.6 mg/kg, dose level High", "result": 97, "unit": "MEQ/L"}, {"measurement": "CHOLESTEROL", "setting": "0.6 mg/kg, dose level High", "result": 115.67, "unit": "mg/dL"}, {"measurement": "CREATINE PHOSPHOKINASE", "setting": "0.6 mg/kg, dose level High", "result": 183.67, "unit": "u/L"}, {"measurement": "CREATININE", "setting": "0.6 mg/kg, dose level High", "result": 0.17, "unit": "mg/dL"}, {"measurement": "GLUCOSE", "setting": "0.6 mg/kg, dose level High", "result": 165.67, "unit": "mg/dL"}, {"measurement": "LACTATE DEHYDROGENASE", "setting": "0.6 mg/kg, dose level High", "result": 137.33, "unit": "u/L"}, {"measurement": "LIPASE", "setting": "0.6 mg/kg, dose level High", "result": 9, "unit": "u/L"}, {"measurement": "PHOSPHORUS", "setting": "0.6 mg/kg, dose level High", "result": 11.9, "unit": "mg/dL"}, {"measurement": "POTASSIUM", "setting": "0.6 mg/kg, dose level High", "result": 6.74, "unit": "MEQ/L"}, {"measurement": "SODIUM", "setting": "0.6 mg/kg, dose level High", "result": 144.13, "unit": "MEQ/L"}, {"measurement": "TOTAL BILIRUBIN", "setting": "0.6 mg/kg, dose level High", "result": 0.13, "unit": "mg/dL"}, {"measurement": "TOTAL PROTEIN", "setting": "0.6 mg/kg, dose level High", "result": 6.3, "unit": "G/DL"}, {"measurement": "URIC ACID", "setting": "0.6 mg/kg, dose level High", "result": 1.67, "unit": "mg/dL"}]}
